# Measured values reported in patent publication US7537803B2, “Polymer coating/encapsulation of nanoparticles using a supercritical antisolvent process” (New Jersey Institute of Technology, priority 2003, dated 2009).
# Test: Dissolution of hydrocortisone in DCM of the coating suspension
# Assay type: physicochemical
# Conditions: suspension in PLGA/dichloromethane for SAS coating
# From the text: An exemplary processing protocol according to the present disclosure is as follows. The precipitation chamber is first charged with SC CO2. After the predetermined operating conditions (temperature and pressure) are reached, a steady flow of CO2 is established by adjusting the metering valve and the metering pump. The flow rate of CO2 was usually less than 3.0 standard liters per minute (SLPM). PLGA and hydrocortisone (HC) are then weighed and mixed into dichloromethane (DCM) to produce a suspension with the desired polymer concentration and PLGA to HC ratio. The suspension-so-produced is then injected at a flow rate of 0.8 ml/min into the high pressure chamber through the capillary nozzle by using an HPLC pump (Beckman, 110B) for about 10 minutes. After spraying, fresh CO2 is supplied continuously to purge the chamber with about 1 equivalent volume of CO2 in order to remove any remaining dichloromethane. After purging, the precipitation chamber is slowly depressurized and the coated drug particles collected for characterization.
# Initially, reference is made to FIG. 18 wherein SEM images of the untreated hydrocortisone particles employed in the experimental studies are shown. Hydrocortisone is seen to be in crystal form with defined facets and sharp edges. […] The coated particles have a different shape (morphology) and no clear sharp edges when compared with the uncoated drug particles. […]
smiles,measurement,value
"C[C@]12CCC(=O)C=C1CC[C@@H]1[C@@H]2[C@@H](O)C[C@@]2(C)[C@H]1CC[C@]2(O)C(=O)CO [hydrocortisone, Hydrocortisone]","hydrocortisone dissolved in DCM, share of the total",about 17%
